Experimental data: patent US20100130603A1, “MEDICAMENT FOR PROPHYLACTIC AND THERAPEUTIC TREATMENT OF DERMATOSIS RESULTING FROM EXCESSIVELY ADVANCED KERATINIZATION” (KYOTO UNIVERSITY, priority 2007, published 2010)

Assays:
[1] = tested on: Serca2 gene; assay: Serca2 mRNA induction in normal human epidermal keratinocytes (NHEK), Northern blotting; format: cell-based; details: for strength of Serca2 gene inducing action: comparison among inducers
Procedure: Normal human epidermal keratinocytes (NHEK) were cultured in a serum-free medium (KGM medium) from which only hydrocortisone was excluded. A test substance dissolved in dimethyl sulfoxide (DMSO) as a solvent was added to the medium and culture was continued, and amount of mRNA of Serca2 gene in the epidermal keratinocytes was quantified by Northern blotting after 3, 6, and 9 hours. […] RNA was extracted 0, 3, 6, 12, 18, 24, and 48 hours after the addition of WiN55,212-2 to the epidermal keratinocytes, and expression of Serca2 gene was observed by Northern blotting.
Test substances including various kinds of vanilloid agonists were examined in the same manner as that of Example 1.

[2] = tested on: ATP2A protein; assay: ATP2A protein localization by immunostaining in human skin under organ culture; format: cell-based; details: optimum concentration, fixed after 24 hours
Procedure: Human skin under a state of organ culture was added with optimum concentration of dihomo-γ-linolenoyldopamine or DMSO (control), and after 24 hours later, the skin was fixed, and then localization of ATP2A protein, which is the causative protein of Darie's disease, was identified by immunostaining.

[3] = tested on: ATP2A protein; assay: ATP2A protein localization by immunostaining in skins of healthy persons transplanted to nude mice; format: in vivo; details: healthy human skin on nude mice, optimum concentration applied every day for 5 days
From the text: Skins of healthy persons were transplanted to nude mice, and after one week under acceptance of graft, optimum concentrations of dihomo-γ-linolenoyldopamine, WIN55,212-2, DPTHF as a vanilloid antagonist, and DMSO (control) were each applied every day for 5 days. The skin samples where the application was made were fixed after biopsy, and localization of ATP2A protein was identified by immunostaining.

[4] = tested on: skin samples of healthy persons; assay: Pathological changes by HE staining in skin samples of healthy persons under organ culture; format: cell-based; details: healthy human skin organ culture, optimum concentration, fixed after 24 to 48 hours
Procedure: Optimum concentrations of dihomo-γ-linolenoyldopamine, WIN55,212-2, DPTHF as a vanilloid antagonist, and DMSO (control) were each added to skin samples of healthy persons and kept under a state of organ culture in the same manner as in Example 3. The skin samples were fixed after 24 to 48 hours, and pathological changes were observed by HE staining.

[5] = tested on: skin samples of Darie's disease patients; assay: Pathological changes by HE staining in skin of Darie's disease patients transplanted to nude mice, applied 5 days; format: in vivo, human skin transplanted to nude mice; details: Darie's disease patient skin on nude mice, optimum concentration applied every day for 5 days
From the text: Skin samples of Darie's disease patients were collected under informed consent of the patients, and transplanted to nude mice, and after one week under acceptance of graft, optimum concentrations of dihomo-γ-linolenoyldopamine, WIN55,212-2, and DMSO (control) were each applied to the skin samples every day for 5 days. The skins where the application was made were fixed after biopsy, and pathological changes were observed by HE staining.

[6] = tested on: ATP2A2 mRNA; assay: ATP2A2 mRNA expression in epidermal keratinocytes of Darier's disease patients, Northern blotting; format: cell-based, human; details: keratinocyte cell lines of 3 Darier's disease patients, 6 hours after treatment, 10^−6 to 10^−9 mol
Procedure: Epidermal keratinocytes were collected from skins of pathological lesions of 3 Darier's disease patients, and cultured to establish cell lines. The cells were treated with WIN55,212-2 or a vanilloid agonist (dihomo-γ-linolenoyldopamine or eicosa-11Z,14Z-dienoyldopamine), and after 6 hours, RNAs were extracted and the expression of ATP2A2 mRNA was observed by Northern blotting. […] When the epidermal keratinocytes of the other two Darie's disease patients were used, similar results were obtained.

[7] = tested on: skin samples of Darie's disease patients; assay: Pathological examination of skin of Darie's disease patients transplanted to nude mice, applied 9 days; format: in vivo, human skin transplanted to nude mice; details: Darie's disease patient skin on nude mice, applied for 9 days in DMSO
Procedure: Skin samples of Darie's disease patients with an area of 1 to 2 cm square were transplanted to nude mice, and acceptance of graft was confirmed after 7 days. Thereafter WIN55,212-2 or dihomo-γ-linolenoyldopamine was applied for 5 to 9 days using dimethyl sulfoxide (DMSO) as a solvent, and effectiveness of the drugs was determined on the basis of pathological examinations. This method is effective for successful determination of efficacy of a drug under a condition closest to the affected patient's skin. […] Where a solvent (DMSO) was applied as the control, dyskeratosis, parakeratosis, and blistering remained, the granular layer remained disappeared, and pathological pictures of Darie's disease were observed even after the transplantation. It is considered that the medicament of the present invention has sufficient effectiveness on inflammatory keratosis such as psoriasis vulgaris, as well as on Darie's disease, because potent therapeutic effect that achieves successful recover of even the formation of normal granular layer was observed when the cannabinoid agonist was applied.

[8] = tested on: three-dimensionally cultured skin model of Darie's disease patients' keratinocytes; assay: Darie's disease model skin by three-dimensional culture; format: cell-based, human; details: added to the medium; keratinocytes with fibroblasts or interstitial components; 5 to 11 days
Procedure: In order to construct a model skin of Darie's disease which is readily reproducible and can be repetitively applied for assays, a […] model skin was constructed by three-dimensional culture of a combination of cultured epidermal keratinocytes and fibroblasts of Darie's disease patients, or three-dimensional culture of a combination of cultured epidermal keratinocytes Darie's disease patients and interstitial components. WIN55,212-2 or dihomo-γ-linolenoyldopamine was added to the medium of the above model skin to confirm the actions thereof. […] With the DMSO treatment as a control, individual keratinization and acantholysis remained, and pathological conditions corresponding to the pathological pictures of Darie's disease were observed.

[9] = synthetic cannabinoid agonists in DMSO, Northern blotting after 3, 6 and 9 hours
[10] = vanilloid agonists, same manner as Example 1

**Q.** For `COc1ccc2c(c1)c(CC(=O)N1CCOCC1)c(C)n2C(=O)c1ccc(Cl)cc1` [BML-190], which “induction of Serca2 gene (mRNA)” value [1, 9] is on record?
**A.** induction of Serca2 gene was induced

**Q.** For `CC/C=C\C/C=C\C/C=C\C/C=C\C/C=C\CCCC(=O)NCCc1ccc(O)c(O)c1` [eicosapentaenoyldopamine], which “induction of Serca2 gene (mRNA)” value [1, 10] is on record?
**A.** induced the Serca2 gene

**Q.** Which results are given for `CCCCC/C=C\C/C=C\C/C=C\CCCCCCC(=O)NCCc1ccc(O)c(O)c1` [dihomo-γ-linolenoyldopamine]?
**A.** strength of Serca2 gene inducing action ([1]; vanilloid agonists): potent inducing action; induction of Serca2 gene (mRNA) [1, 10]: induced the Serca2 gene; localization/expression of ATP2A protein by immunostaining [2]: excessively advanced expression in the basal layer was observed; localization/expression of ATP2A protein by immunostaining [3]: excessively advanced expression in the basal layer was observed; pathological changes by HE staining [4]: remained in a state of physiological skin not distinguishable from healthy skins; pathological changes by HE staining [5]: these pathological changes characteristic to Darie's disease disappeared; expression of ATP2A2 mRNA [6]: concentration-dependent promotion of expression of ATP2A2 was observed; pathological pictures (effectiveness by pathological examination) [7]: dyskeratosis and blistering disappeared, and the granular layer also slightly recovered, but keratinization accompanied by parakeratosis slightly remained; pathological pictures in three-dimensional model skin [8]: recovery of three-dimensional skin having quality similar to that of healthy skin was observed

**Q.** For `CCCCC/C=C\C/C=C\C/C=C\C/C=C\CCCCCC(=O)NCCc1ccc(O)c(O)c1` [docosatetra-7Z,10Z,13Z,16Z-enoyldopamine], which “induction of Serca2 gene (mRNA)” value [1, 10] is on record?
**A.** induced the Serca2 gene

**Q.** How did the “inducing action of vanilloid agonists on Serca2 gene expression when the vanilloid antagonist coexisted” value ([1]; coexisting with vanilloid agonists (FIG. 7: dihomo-γ-linolenoyldopamine+DPTHF)) turn out when `c1ccc(C2(c3ccccc3)CCCO2)cc1` [DPTHF, diphenyltetrahydrofuran] was run?
**A.** disappeared

**Q.** What about the “localization/expression of ATP2A protein by immunostaining” value [3] of the same compound?
**A.** decrease of expression of ATP2A2 was observed

**Q.** And the “pathological changes by HE staining” value [4]?
**A.** pathological images similar to those of Darie's disease such as individual keratinization and acantholysis were observed

**Q.** Which “induction of Serca2 gene (mRNA)” value [1, 10] does the source give for `CC/C=C\C/C=C\C/C=C\C/C=C\C/C=C\C/C=C\CCC(=O)NCCc1ccc(O)c(O)c1` [docosahexaenoyldopamine] here?
**A.** induced the Serca2 gene

**Q.** With `NCCOB(c1ccccc1)c1ccccc1` [2-aminoethoxydiphenyl borate (2-APB), 2-aminoethoxydiphenyl borate] as the compound, how does the “induction of Serca2 gene (mRNA)” value [1, 10] read?
**A.** induced the Serca2 gene

**Q.** `CCCCC/C=C\C/C=C\CCCCCCCCCC(=O)NCCc1ccc(O)c(O)c1` [eicosa-11Z,14Z-dienoyldopamine] was tested. Which “strength of Serca2 gene inducing action” value ([1]; vanilloid agonists) did it give?
**A.** potent inducing action

**Q.** And the “induction of Serca2 gene (mRNA)” value [1, 10]?
**A.** induced the Serca2 gene

**Q.** And the “expression of ATP2A2 mRNA” value [6]?
**A.** concentration-dependent promotion of expression of ATP2A2 was observed

**Q.** `CCCCC/C=C\C/C=C\C/C=C\C/C=C\CCCC(=O)N[C@H](C)CO` [methanandamide] was tested. Which “induction of Serca2 gene (mRNA)” value [1, 9] did it give?
**A.** induction of Serca2 gene was induced

**Q.** `CCCCC/C=C\C/C=C\C/C=C\CCCCC(=O)NCCc1ccc(O)c(O)c1` [γ-linolenoyldopamine] was tested. Which “strength of Serca2 gene inducing action” value ([1]; vanilloid agonists) did it give?
**A.** potent inducing action

**Q.** What about the “induction of Serca2 gene (mRNA)” value [1, 10] of the same compound?
**A.** induced the Serca2 gene

**Q.** For `Cc1c(C(=O)c2cccc3ccccc23)c2cccc3c2n1[C@H](CN1CCOCC1)CO3` [WIN55,212-2], which “induction of Serca2 gene (mRNA)” value [1, 9] is on record?
**A.** induction of Serca2 gene was induced

**Q.** What about the “localization/expression of ATP2A protein by immunostaining” value [3] of the same compound?
**A.** excessively advanced expression in the basal layer was observed

**Q.** And the “pathological changes by HE staining” value [4]?
**A.** remained in a state of physiological skin not distinguishable from healthy skins

**Q.** What about the “pathological changes by HE staining” value [5] of the same compound?
**A.** these pathological changes characteristic to Darie's disease disappeared

**Q.** And the “expression of ATP2A2 mRNA” value [6]?
**A.** concentration-dependent promotion of expression of ATP2A2 was observed

**Q.** What about the “pathological pictures (effectiveness by pathological examination)” value [7] of the same compound?
**A.** dyskeratosis, parakeratosis, and blistering were disappeared, and normal keratinization was observed with recovered granular layer

**Q.** What about the “pathological pictures in three-dimensional model skin” value [8] of the same compound?
**A.** recovery of three-dimensional skin having quality similar to that of healthy skin was observed

**Q.** `CCCCCCCCCC(=O)O[C@@H]1[C@@H](C)[C@@]2(O)[C@@H](C=C(CO)C[C@@]3(O)C(=O)C(C)=C[C@@H]23)[C@@H]2C(C)(C)[C@]12OC(=O)CCCCCCCCC` [4-α-phorbol 12,13-didecanoate (4α-PDD), 4-α-phorbol 12,13-didecanoate] was tested. Which “induction of Serca2 gene (mRNA)” value [1, 10] did it give?
**A.** induced the Serca2 gene
